According to ChEMBL document CHEMBL4825708 (J Med Chem, 2021):
In brackets after ≈: the same amount, converted by molar mass.

Assays:
[1] = Kinetic solubility of compound at pH 7.4; conditions: buffer
[2] = Clearance in Sprague-Dawley rat at 1 mg/kg, iv or po measured after 0.033 to 24 hrs by LC/MS/MS analysis; conditions: in vivo
[3] = Distribution coefficient, logD of the compound at pH 7.4; conditions: octanol/water
[4] = tested on: MCF7; assay: cells; conditions: Homo sapiens, MCF7, 72 h
Description: Antiproliferative activity against human MCF-7 cells incubated for 72 hrs by Cell-titer Glo assay

[5] = in vivo; conditions: Sprague-Dawley, rat, po, 1 mg/kg
[6] = in vitro; conditions: human
[7] = in vitro; conditions: rat
[8] = in vitro; conditions: human; remark: listed apart in the source
[9] = in vitro; conditions: rat; remark: listed apart in the source
[10] = target: T1, Estrogen receptor (Homo sapiens, UniProt P03372)
T1 sequence (P03372 whole entry): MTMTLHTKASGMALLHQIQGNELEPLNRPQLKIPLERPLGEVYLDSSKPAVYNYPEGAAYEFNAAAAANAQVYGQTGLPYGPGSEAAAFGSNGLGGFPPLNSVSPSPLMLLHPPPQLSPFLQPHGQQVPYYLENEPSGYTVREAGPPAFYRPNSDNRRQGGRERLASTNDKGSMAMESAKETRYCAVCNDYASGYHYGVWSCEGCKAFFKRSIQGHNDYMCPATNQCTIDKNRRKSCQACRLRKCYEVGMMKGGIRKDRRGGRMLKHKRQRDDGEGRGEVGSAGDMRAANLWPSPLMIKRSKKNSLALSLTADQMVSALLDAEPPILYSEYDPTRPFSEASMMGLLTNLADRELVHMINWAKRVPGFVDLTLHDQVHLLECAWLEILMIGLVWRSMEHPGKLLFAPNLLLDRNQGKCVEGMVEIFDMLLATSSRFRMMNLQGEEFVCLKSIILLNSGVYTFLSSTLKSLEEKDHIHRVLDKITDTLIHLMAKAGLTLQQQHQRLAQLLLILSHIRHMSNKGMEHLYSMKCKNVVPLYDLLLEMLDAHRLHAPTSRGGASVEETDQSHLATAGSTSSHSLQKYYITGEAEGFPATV
Description: Antagonist activity at estrogen receptor in human T47D cells incubated for 18 hrs by ultra high sensitivity luminescence reporter gene assay

[11] = target: T1, Estrogen receptor; conditions: mcf7
Description: Induction of estrogen receptor degradation in human MCF7 cells incubated for 4 hrs by Alexafluor -488 conjugate anti-mouse IgG staining based fluorescence method

[12] = Apparent permeability in MDCK cells across apical to basolateral side at 10 uM incubated for 3 hrs by LC-MS/MS analysis; conditions: dog
[13] = in vivo; conditions: Sprague-Dawley, rat, iv, 1 mg/kg
[14] = in vivo; conditions: Sprague-Dawley, rat, po, 5 mg/kg
[15] = target: T2, Estrogen receptor (Homo sapiens) (UniProt P03372); conditions: MCF7, dose 0.0002-100 nM, time 4.0 hrs
T2 sequence (whole entry): T1 sequence (P03372 whole entry)

[16] = target: T2, Estrogen receptor (Homo sapiens); conditions: MCF7, dose 1.0 nM, time 0.5-24 hrs
[17] = target: Nav1.5 (Homo sapiens, UniProt Q14524); assay: Inhibition of human Nav1.5 expressed in CHO cells at 10 uM by QPatch HT assay; conditions: CHO cells expressing human Nav1.5
Sequence of Nav1.5 (Q14524 whole entry): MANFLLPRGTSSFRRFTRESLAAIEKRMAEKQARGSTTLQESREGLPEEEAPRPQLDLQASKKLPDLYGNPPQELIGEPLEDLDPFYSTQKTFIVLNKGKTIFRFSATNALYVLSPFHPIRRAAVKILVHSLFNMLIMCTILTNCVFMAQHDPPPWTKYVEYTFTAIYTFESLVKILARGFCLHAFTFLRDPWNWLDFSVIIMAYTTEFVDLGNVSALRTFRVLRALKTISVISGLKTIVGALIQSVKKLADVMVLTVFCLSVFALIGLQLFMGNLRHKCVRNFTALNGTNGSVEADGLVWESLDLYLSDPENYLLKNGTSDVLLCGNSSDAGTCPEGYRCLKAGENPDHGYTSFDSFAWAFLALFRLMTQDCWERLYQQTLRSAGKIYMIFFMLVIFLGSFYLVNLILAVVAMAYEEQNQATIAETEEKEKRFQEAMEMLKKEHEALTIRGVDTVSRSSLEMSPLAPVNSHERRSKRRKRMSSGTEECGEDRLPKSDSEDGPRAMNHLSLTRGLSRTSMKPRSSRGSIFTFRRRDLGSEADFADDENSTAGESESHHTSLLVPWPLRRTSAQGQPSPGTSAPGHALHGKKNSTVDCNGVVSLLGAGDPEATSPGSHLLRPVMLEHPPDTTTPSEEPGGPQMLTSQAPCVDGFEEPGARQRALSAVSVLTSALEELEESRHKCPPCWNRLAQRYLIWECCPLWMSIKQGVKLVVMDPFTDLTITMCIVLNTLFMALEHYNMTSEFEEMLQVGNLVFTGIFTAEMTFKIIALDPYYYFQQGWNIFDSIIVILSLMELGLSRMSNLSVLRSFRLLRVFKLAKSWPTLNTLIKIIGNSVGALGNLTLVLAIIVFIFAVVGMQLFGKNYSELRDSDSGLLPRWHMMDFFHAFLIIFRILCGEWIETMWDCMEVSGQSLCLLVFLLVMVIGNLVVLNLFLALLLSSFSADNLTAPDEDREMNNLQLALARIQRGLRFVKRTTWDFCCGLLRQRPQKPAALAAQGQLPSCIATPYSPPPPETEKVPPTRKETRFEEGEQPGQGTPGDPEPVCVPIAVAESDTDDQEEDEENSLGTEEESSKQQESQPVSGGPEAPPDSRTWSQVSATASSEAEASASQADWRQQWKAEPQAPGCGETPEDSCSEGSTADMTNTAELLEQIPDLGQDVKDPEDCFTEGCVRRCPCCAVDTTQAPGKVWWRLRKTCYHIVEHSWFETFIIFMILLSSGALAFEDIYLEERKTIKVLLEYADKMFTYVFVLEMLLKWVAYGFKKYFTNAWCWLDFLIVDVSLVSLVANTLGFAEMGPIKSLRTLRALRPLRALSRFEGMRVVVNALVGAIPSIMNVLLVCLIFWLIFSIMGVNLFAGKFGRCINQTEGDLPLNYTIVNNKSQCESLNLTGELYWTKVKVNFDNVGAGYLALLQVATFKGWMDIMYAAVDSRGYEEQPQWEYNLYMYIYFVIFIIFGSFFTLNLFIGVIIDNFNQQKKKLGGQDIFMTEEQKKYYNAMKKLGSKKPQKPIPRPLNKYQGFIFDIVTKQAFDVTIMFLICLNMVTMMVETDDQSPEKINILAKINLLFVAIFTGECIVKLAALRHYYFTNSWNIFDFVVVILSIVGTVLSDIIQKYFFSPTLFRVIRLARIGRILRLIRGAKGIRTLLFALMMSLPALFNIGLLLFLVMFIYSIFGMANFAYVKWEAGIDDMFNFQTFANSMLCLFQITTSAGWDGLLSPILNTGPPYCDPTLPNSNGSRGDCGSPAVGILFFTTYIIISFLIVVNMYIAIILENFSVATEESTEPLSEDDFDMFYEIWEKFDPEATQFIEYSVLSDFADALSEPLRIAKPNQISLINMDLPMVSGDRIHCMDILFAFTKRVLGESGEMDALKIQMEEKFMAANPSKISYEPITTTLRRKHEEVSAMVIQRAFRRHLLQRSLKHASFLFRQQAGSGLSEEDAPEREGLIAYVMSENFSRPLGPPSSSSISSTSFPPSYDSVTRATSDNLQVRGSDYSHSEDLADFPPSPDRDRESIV

[18] = target: Cav1.2 (Homo sapiens, UniProt Q13936); assay: Inhibition of human Cav1.2 expressed in CHO cells at 10 uM by QPatch HT assay; conditions: CHO cells expressing human Cav1.2
Sequence of Cav1.2 (Q13936 whole entry): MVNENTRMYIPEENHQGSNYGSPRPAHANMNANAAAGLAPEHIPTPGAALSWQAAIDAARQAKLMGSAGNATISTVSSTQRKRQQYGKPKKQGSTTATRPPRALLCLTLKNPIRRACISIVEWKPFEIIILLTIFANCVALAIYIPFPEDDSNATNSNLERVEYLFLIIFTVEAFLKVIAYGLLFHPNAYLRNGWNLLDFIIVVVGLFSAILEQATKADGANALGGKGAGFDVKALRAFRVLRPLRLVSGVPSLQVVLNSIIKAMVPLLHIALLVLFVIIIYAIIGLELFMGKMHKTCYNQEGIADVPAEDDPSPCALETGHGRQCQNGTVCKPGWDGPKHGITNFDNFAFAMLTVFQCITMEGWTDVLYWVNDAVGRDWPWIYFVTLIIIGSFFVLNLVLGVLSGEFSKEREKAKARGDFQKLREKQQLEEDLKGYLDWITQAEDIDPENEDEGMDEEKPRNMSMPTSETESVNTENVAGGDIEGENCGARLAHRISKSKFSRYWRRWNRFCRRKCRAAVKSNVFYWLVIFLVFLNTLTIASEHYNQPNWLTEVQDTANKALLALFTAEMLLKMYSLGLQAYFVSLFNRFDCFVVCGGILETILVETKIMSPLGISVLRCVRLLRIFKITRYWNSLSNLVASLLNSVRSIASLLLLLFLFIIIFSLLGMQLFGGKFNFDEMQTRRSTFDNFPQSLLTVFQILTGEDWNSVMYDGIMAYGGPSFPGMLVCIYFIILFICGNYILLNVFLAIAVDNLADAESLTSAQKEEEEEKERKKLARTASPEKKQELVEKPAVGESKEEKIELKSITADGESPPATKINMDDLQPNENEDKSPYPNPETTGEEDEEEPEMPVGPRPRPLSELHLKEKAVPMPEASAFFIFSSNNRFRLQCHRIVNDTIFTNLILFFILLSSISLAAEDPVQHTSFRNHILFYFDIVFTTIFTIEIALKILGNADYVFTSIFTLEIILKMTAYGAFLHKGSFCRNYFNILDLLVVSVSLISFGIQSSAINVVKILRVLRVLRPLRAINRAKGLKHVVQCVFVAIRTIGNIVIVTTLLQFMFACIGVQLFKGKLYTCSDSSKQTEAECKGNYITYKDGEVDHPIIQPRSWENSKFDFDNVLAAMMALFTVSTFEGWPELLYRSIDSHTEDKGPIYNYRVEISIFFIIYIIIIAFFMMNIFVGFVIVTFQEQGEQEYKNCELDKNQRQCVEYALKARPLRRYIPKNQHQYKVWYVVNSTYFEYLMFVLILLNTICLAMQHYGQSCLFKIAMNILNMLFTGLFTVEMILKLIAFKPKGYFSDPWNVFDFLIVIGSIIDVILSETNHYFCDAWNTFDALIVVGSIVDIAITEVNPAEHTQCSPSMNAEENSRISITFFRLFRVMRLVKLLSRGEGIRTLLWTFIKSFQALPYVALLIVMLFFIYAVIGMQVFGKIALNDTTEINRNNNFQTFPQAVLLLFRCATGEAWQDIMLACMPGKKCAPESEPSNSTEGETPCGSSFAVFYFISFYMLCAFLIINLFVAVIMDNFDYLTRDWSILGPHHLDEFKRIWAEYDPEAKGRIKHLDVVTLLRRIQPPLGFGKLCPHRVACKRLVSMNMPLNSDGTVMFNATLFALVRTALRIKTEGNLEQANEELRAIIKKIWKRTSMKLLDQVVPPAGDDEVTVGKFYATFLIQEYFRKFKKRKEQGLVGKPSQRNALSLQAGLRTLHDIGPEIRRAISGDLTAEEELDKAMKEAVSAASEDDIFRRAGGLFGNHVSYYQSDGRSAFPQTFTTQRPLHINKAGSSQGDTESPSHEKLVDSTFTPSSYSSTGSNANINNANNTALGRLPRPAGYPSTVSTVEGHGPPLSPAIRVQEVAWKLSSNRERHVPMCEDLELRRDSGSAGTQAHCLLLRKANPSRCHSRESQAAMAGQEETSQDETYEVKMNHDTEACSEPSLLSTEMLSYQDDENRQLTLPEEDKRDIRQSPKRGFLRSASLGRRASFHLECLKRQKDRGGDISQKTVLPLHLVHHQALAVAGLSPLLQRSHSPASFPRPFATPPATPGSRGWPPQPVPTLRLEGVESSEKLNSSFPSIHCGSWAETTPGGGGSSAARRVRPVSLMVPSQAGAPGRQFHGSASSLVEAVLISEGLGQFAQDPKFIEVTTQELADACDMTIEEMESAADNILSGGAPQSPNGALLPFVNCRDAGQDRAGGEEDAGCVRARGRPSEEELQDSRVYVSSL

[19] = rat, in vivo, iv, 1 mg/kg

Structure (SMILES)	solubility kinetic [1]	logD [3]	EC50 [4]	CLint scaled at 1 h ([6]; hepatocytes)	CLint scaled at 1 h ([7]; hepatocytes)	CLint scaled at 1 h, 1 µM ([8]; microsomes)	CLint scaled at 1 h, 1 µM ([9]; microsomes)	DC50 [11]	other results
C[C@@H]1Cc2c([nH]c3ccccc23)[C@@H](c2c(F)cc(OCCN3CC(CF)C3)cc2F)N1CC(C)(C)F	10 µM (≈ 5.04 µg/mL)	4	1 nM	0.36 L/h/kg	1.74 L/h/kg	0.6 L/h/kg	1.74 L/h/kg	–	clearance [2]: 2.04 L/h/kg; bioavailability [5]: 31%
C[C@@H]1Cc2c([nH]c3ccccc23)[C@@H](c2c(F)cc(NC3CN(CCC(F)F)C3)cc2F)N1CC(F)(F)CO	42 µM (≈ 22.7 µg/mL)	–	0.8 nM	–	–	0.72 L/h/kg	1.5 L/h/kg	0.02 nM	IC50 [10]: 0.09 nM
CC/C(=C(\c1ccc(O)cc1)c1ccc(OCCN(C)C)cc1)c1ccccc1 [AFIMOXIFENE]	31 µM (≈ 12 µg/mL)	4	3.5 nM	0.84 L/h/kg	1.92 L/h/kg	–	–	–	–
C[C@@H]1Cc2c([nH]c3ccccc23)[C@@H](c2c(F)cc(OC3CN(CCCO)C3)cc2F)N1CC(F)(F)CO	163 µM (≈ 85 µg/mL)	–	0.6 nM	–	–	0.54 L/h/kg	0.6 L/h/kg	0.03 nM	IC50 [10]: 0.08 nM
C[C@@H]1Cc2c([nH]c3cccc(F)c23)[C@@H](c2c(F)cc(NC3CN(CCCF)C3)cc2F)N1CC(F)(F)CO	92 µM (≈ 49.7 µg/mL)	3.3	0.5 nM	0.72 L/h/kg	1.38 L/h/kg	0.72 L/h/kg	1.14 L/h/kg	0.04 nM	Papp A→B at 3 h, 10 µM [12]: 9 nm/s; IC50 [10]: 0.15 nM; clearance [13]: 1.62 L/h/kg
C[C@@H]1Cc2c([nH]c3ccccc23)[C@@H](c2c(F)cc(OCCNCCCF)cc2F)N1CC(F)(F)CO	–	–	0.9 nM	–	–	–	–	–	–
CC/C(=C(\c1ccccc1)c1ccc(OCCN(C)C)cc1)c1ccccc1 [TAMOXIFEN]	–	–	> 200 nM	0.72 L/h/kg	1.98 L/h/kg	–	–	–	clearance [2]: 5.7 L/h/kg; bioavailability [14]: 69%
C[C@@H]1Cc2c([nH]c3ccccc23)[C@@H](c2c(F)cc(N[C@H]3CCN(CCCF)C3)cc2F)N1CC(F)(F)CO	80 µM (≈ 42.9 µg/mL)	–	0.3 nM	–	–	0.66 L/h/kg	1.56 L/h/kg	0.16 nM	–
C[C@@H]1Cc2c([nH]c3ccccc23)[C@@H](c2ccc(NC3CN(CCCF)C3)nc2)N1CC(F)(F)CO	114 µM (≈ 55.6 µg/mL)	–	> 200 nM	–	–	0.36 L/h/kg	1.38 L/h/kg	> 1000 nM	IC50 [10]: > 1000 nM
CC1=C(c2cccc(O)c2)[C@H](c2ccc(OCCN3CC(CF)C3)cc2)Oc2ccc(O)cc21	47 µM (≈ 21.7 µg/mL)	–	–	–	2.76 L/h/kg	–	–	–	Papp A→B at 3 h, 10 µM [12]: 46 nm/s; Emax [15]: 97%; T1/2 [16]: 6 h; bioavailability [14]: 17%
C[C@@H]1Cc2c([nH]c3ccc(F)cc23)[C@@H](c2c(F)cc(NC3CN(CCCF)C3)cc2F)N1CC(F)(F)CO	–	–	0.5 nM	–	–	–	–	–	inhibition at 10 µM [17]: 14%; inhibition at 10 µM [18]: 10.7%; CL free [19]: 88.5 L/h/kg; clearance [13]: 1.08 L/h/kg; CLint scaled at 1 h ([6]; human hepatocytes): 0.6 L/h/kg; CLint scaled at 1 h ([7]; rat hepatocytes): 0.9 L/h/kg; CLint scaled at 1 h, 1 µM ([8]; human liver microsomes): 0.6 L/h/kg; CLint scaled at 1 h, 1 µM ([9]; rat liver microsomes): 0.84 L/h/kg
C[C@@H]1Cc2c([nH]c3ccccc23)[C@@H](c2c(F)cc(OC3CN(CCCF)C3)cc2F)N1CC(C)(C)F	1 µM (≈ 0.504 µg/mL)	4.8	0.7 nM	0.42 L/h/kg	1.74 L/h/kg	–	–	–	clearance [2]: 1.14 L/h/kg; Papp A→B at 3 h, 10 µM [12]: 4 nm/s; clearance [13]: 1.14 L/h/kg; bioavailability [5]: 31%
C[C@]12CC[C@@H]3c4ccc(O)cc4C[C@@H](CCCCCCCCC[S+]([O-])CCCC(F)(F)C(F)(F)F)[C@H]3[C@@H]1CC[C@@H]2O (stereo not given in full) [FULVESTRANT]	3 µM (≈ 1.82 µg/mL)	> 5	2.4 nM	0.9 L/h/kg	1.74 L/h/kg	–	–	–	Emax [15]: 103%; T1/2 [16]: 2.2 h
C[C@@H]1Cc2c([nH]c3ccccc23)[C@@H](c2c(F)cc(O[C@H]3CCN(CCCF)C3)cc2F)N1CC(F)(F)CO	35 µM (≈ 18.8 µg/mL)	–	0.3 nM	–	–	0.9 L/h/kg	2.1 L/h/kg	0.12 nM	–
CC/C(=C(/c1ccc(/C=C/C(=O)O)cc1)c1ccc2[nH]ncc2c1)c1ccc(F)cc1Cl [BRILANESTRANT]	19 µM (≈ 8.49 µg/mL)	3.8	17 nM	0.9 L/h/kg	0.36 L/h/kg	–	–	–	clearance [2]: 2.4 L/h/kg; Papp A→B at 3 h, 10 µM [12]: 23 nm/s; bioavailability [14]: 30%
C[C@@H]1Cc2c([nH]c3ccccc23)[C@@H](c2c(F)cc(NCCNCCCF)cc2F)N1CC(F)(F)CO	199 µM (≈ 102 µg/mL)	–	0.6 nM	–	–	0.42 L/h/kg	< 0.36 L/h/kg	0.27 nM	Emax [15]: 90%
C[C@@H]1Cc2c(ccc3[nH]ncc23)[C@@H](c2c(F)cc(OCCN3CC(CF)C3)cc2F)N1CC(C)(C)F	1 µM (≈ 0.505 µg/mL)	–	0.8 nM	–	–	1.02 L/h/kg	2.64 L/h/kg	0.06 nM	IC50 [10]: 0.2 nM
